Four substances from article PMC9052545 (RSC Advances, 2020) can be followed below.

For orientation: Kd means the constant that tells how readily two partners part at equilibrium. Higher therefore signals weaker binding.

For this experiment, the target named is HER2-Fc (HER2) (Homo sapiens, UniProt P04626). The following applies: SEM, n = 3.
With “FN3 with RKPKSG grafted at residues 51-56 (His-tagged) [FN3-p4.4]”, the Kd came to 0.5 ± 0.15 µM.

Regarding “FN3 with YCGCEM grafted at residues 51-56 (His-tagged) [FN3-p1]”, binding was characterised by a dissociation constant (Kd) of 0.28 ± 0.023 µM.

As for “FN3 with YCICCM grafted at residues 51-56 (His-tagged) [FN3-p1.M.1]”, binding was put at a Kd of 0.068 ± 0.014 µM.

“FN3 with YCPVCM grafted at residues 51-56 (His-tagged) [FN3-p1.M.3]” gave a Kd of 0.11 ± 0.028 µM.
